# Read-outs that look alike come from different tables or passages of the source.
# Assays:
# [1] = rcm bond, Hoveyda-Grubbs 2nd generation catalyst
# [2] = system: HCV replicon 1a (human hepatoma Huh-7 cell line harboring a HCV replicon); test: microbe, parasite or virus in culture; format: cell-based; settings: for inhibition at 1 µM: Hepatitis C virus, Huh-7, 72 h, read-out: Replicon 1a % inhibition at 1 μm
smiles,measurement,setting,value
C[C@@H]1NC(=O)[C@H]([C@@H](C)O[Si](C)(C)C(C)(C)C)NC(=O)CC=Cc2cc3cc(ccc3cn2)[C@@H](C)OC(=O)[C@@H]2CCCN(N2)C1=O,"ring closure, yield of all isomers","[1]; from C=Cc1cc2cc([C@@H](C)OC(=O)[C@@H]3CCCN(C(=O)[C@H](C)NC(=O)[C@@H](NC(=O)C/C=C/C)[C@@H](C)O[Si](C)(C)C(C)(C)C)N3)ccc2cn1, toluene, 2.94 mM, 105.0 °C, 1.0 h",42%
C[C@@H]1NC(=O)[C@H](C2CCCCC2)NC(=O)CC=Cc2cc3cc(ccc3cn2)[C@@H](C)OC(=O)[C@@H]2CCCN(N2)C1=O,"ring closure, yield of all isomers","[1]; from C=Cc1cc2cc([C@@H](C)OC(=O)[C@@H]3CCCN(C(=O)[C@H](C)NC(=O)[C@@H](NC(=O)C/C=C/C)C4CCCCC4)N3)ccc2cn1, toluene, 5.0 mM, 110.0 °C, 2.0 h",7%
CC1C=Cc2cc3cc(ccc3cn2)[C@@H](C)OC(=O)[C@@H]2CCCN(N2)C(=O)[C@H](C)NC(=O)[C@H](C(C)C)NC1=O (stereo partly shown),"ring closure, yield of all isomers","[1]; from C=Cc1cc2cc([C@@H](C)OC(=O)[C@@H]3CCCN(C(=O)[C@H](C)NC(=O)[C@@H](NC(=O)C(C)C=C)C(C)C)N3)ccc2cn1, toluene, 2.6 mM, 111.0 °C, 3.0 h",1%
CC(C)[C@@H]1NC(=O)[C@H](C)CC=CCOc2ccc(F)c(c2)[C@@H](C)OC(=O)[C@@H]2CCCN(N2)C(=O)[C@H](C)NC1=O,"ring closure, yield of all isomers","[1]; from C=CCOc1ccc(F)c([C@@H](C)OC(=O)[C@@H]2CCCN(C(=O)[C@H](C)NC(=O)[C@@H](NC(=O)[C@H](C)CC=C)C(C)C)N2)c1, 1,2-dichloroethane, 3.0 mM, 83.0 °C, 2.0 h",20%
CO[C@@H]1C=Cc2cc3cc(ccc3cn2)[C@@H](C)NC(=O)[C@@H]2CCCN(N2)C(=O)[C@H](C)NC(=O)[C@H](C(C)C)NC(=O)[C@@H]1C,"ring closure, yield of all isomers","[1]; from C=Cc1cc2cc([C@@H](C)NC(=O)[C@@H]3CCCN(C(=O)[C@H](C)NC(=O)[C@@H](NC(=O)[C@H](C)[C@@H](/C=C/C)OC)C(C)C)N3)ccc2cn1, toluene, 3.33 mM, 110.0 °C, 8.0 h",26%
CC(C)[C@@H]1NC(=O)CCCC=Cc2cc3cc(ccc3cn2)[C@@H](C)OC(=O)[C@@H]2CCCN(N2)C(=O)[C@H](C)NC1=O,"ring closure, yield of all isomers","[1]; from C=CCCCC(=O)N[C@H](C(=O)N[C@@H](C)C(=O)N1CCC[C@@H](C(=O)O[C@H](C)c2ccc3cnc(C=C)cc3c2)N1)C(C)C, toluene, 2.41 mM, 111.0 °C, 0.5 h",63%
CC(C)[C@@H]1NC(=O)[C@H](C)C/C=C/COc2ccc(F)c(c2)[C@@H](C)OC(=O)[C@@H]2CCCN(N2)C(=O)[C@H](C)NC1=O [Example 35],inhibition at 1 µM,[2],94%
C[C@@H]1NC(=O)[C@H](Cc2ccccc2)NC(=O)CC=Cc2cc3cc(ccc3cn2)[C@@H](C)OC(=O)[C@@H]2CCCN(N2)C1=O,"ring closure, yield of all isomers","[1]; from C=Cc1cc2cc([C@@H](C)OC(=O)[C@@H]3CCCN(C(=O)[C@H](C)NC(=O)[C@H](Cc4ccccc4)NC(=O)C/C=C/C)N3)ccc2cn1, chlorobenzene, 4.96 mM, 110.0 °C, 3.0 h",12%
C[C@@H]1NC(=O)[C@H](CCc2ccccc2)NC(=O)CC=Cc2cc3cc(ccc3cn2)[C@@H](C)OC(=O)[C@@H]2CCCN(N2)C1=O,"ring closure, yield of all isomers","[1]; from C=Cc1cc2cc([C@@H](C)OC(=O)[C@@H]3CCCN(C(=O)[C@H](C)NC(=O)[C@H](CCc4ccccc4)NC(=O)C/C=C/C)N3)ccc2cn1, chlorobenzene, 4.81 mM, 110.0 °C, 3.5 h",12%
CO[C@@H]1CCC=Cc2ccc3c(c2)[C@@H](CC3)N(C)C(=O)[C@@H]2CCCN(N2)C(=O)[C@H](C)NC(=O)[C@H](C(C)C)NC(=O)[C@@H]1C,"ring closure, yield of all isomers","[1]; from C=CCC[C@@H](OC)[C@@H](C)C(=O)N[C@H](C(=O)N[C@@H](C)C(=O)N1CCC[C@@H](C(=O)N(C)[C@@H]2CCc3ccc(C=C)cc32)N1)C(C)C, 1,2-dichloroethane, 3.9 mM, 83.0 °C, 1.5 h",5%
CC(C)[C@@H]1NC(=O)CC=Cc2cc3cc(ccc3cn2)[C@@H](C)OC(=O)[C@@H]2CCCN(N2)C(=O)[C@H](C)NC1=O,"ring closure, yield of all isomers","[1]; from C=Cc1cc2cc([C@@H](C)OC(=O)[C@@H]3CCCN(C(=O)[C@H](C)NC(=O)[C@@H](NC(=O)C/C=C/C)C(C)C)N3)ccc2cn1, toluene, 3.33 mM, 110.0 °C, 1.0 h",23.5%
CO[C@@H]1CCC=Cc2cccc(c2)C2CCCCN2C(=O)[C@@H]2CCCN(N2)C(=O)[C@H](C)NC(=O)[C@H](C(C)C)NC(=O)[C@@H]1C (stereo partly shown),"ring closure, yield of all isomers","[1]; from C=CCC[C@@H](OC)[C@@H](C)C(=O)N[C@H](C(=O)N[C@@H](C)C(=O)N1CCC[C@@H](C(=O)N2CCCCC2c2cccc(C=C)c2)N1)C(C)C, 1,2-dichloroethane, 3.05 mM, 84.0 °C, 2.5 h",18%
CC(C)[C@@H]1NC(=O)CC=Cc2ccc3ccc(cc3n2)[C@@H](C)OC(=O)[C@@H]2CCCN(N2)C(=O)[C@H](C)NC1=O,"ring closure, yield of all isomers","[1]; from C=CCC(=O)N[C@H](C(=O)N[C@@H](C)C(=O)N1CCC[C@@H](C(=O)O[C@H](C)c2ccc3ccc(C=C)nc3c2)N1)C(C)C, 1,2-dichloroethane, 18.2 mM, 100.0 °C, 1.0 h",3%
"CO[C@@H]1/C=C/COc2cccc(c2)[C@@H](C(C)C)NC(=O)[C@@H]2CCCN(N2)C(=O)[C@H](C)NC(=O)[C@H](C(C)C)NC(=O)[C@@H]1C [Example 37, (E)-(2R,5S,11S,14S,17R,18R)-2,14-Diisopropyl-18-methoxy-11,17-di methyl-22-oxa-3,9,12,15,28-pentaaza-tricyclo[21.3.1.1*5,9]octacosa-1(27),19,23,25-tetraene-4,10,13,16-tetraone]",Replicon 1a % inhibition at 1 μm,[2],76%
CC[C@@H]1C=Cc2cc3cc(ccc3cn2)[C@@H](C)OC(=O)[C@@H]2CCCN(N2)C(=O)[C@H](C)NC(=O)[C@H](C(C)C)NC1=O,"ring closure, yield of all isomers","[1]; from C=Cc1cc2cc([C@@H](C)OC(=O)[C@@H]3CCCN(C(=O)[C@H](C)NC(=O)[C@@H](NC(=O)[C@@H](/C=C/C)CC)C(C)C)N3)ccc2cn1, toluene, 3.0 mM, 120.0 °C, 4.0 h",1%
CC(C)[C@@H]1NC(=O)CC=Cc2cc3cc(ccc3cn2)[C@@H](C)NC(=O)[C@@H]2CCCN(N2)C(=O)[C@H](C)NC1=O,"ring closure, yield of all isomers","[1]; from C=CCC(=O)N[C@H](C(=O)N[C@@H](C)C(=O)N1CCC[C@@H](C(=O)N[C@H](C)c2ccc3cnc(C=C)cc3c2)N1)C(C)C, toluene, 3.86 mM, 111.0 °C, 3.0 h",2.2%
CC(C)[C@@H]1NC(=O)[C@H](C)/C=C/c2ccc3ccc(nc3c2)[C@@H](C)OC(=O)[C@@H]2CCCN(N2)C(=O)[C@H](C)NC1=O [Example 26],Replicon 1a % inhibition at 1 μm,[2],99%
C[C@@H]1NC(=O)[C@H](CO[Si](C)(C)C(C)(C)C)NC(=O)CC=Cc2cc3cc(ccc3cn2)[C@@H](C)OC(=O)[C@@H]2CCCN(N2)C1=O,"ring closure, yield of all isomers","[1]; from C=Cc1cc2cc([C@@H](C)OC(=O)[C@@H]3CCCN(C(=O)[C@H](C)NC(=O)[C@H](CO[Si](C)(C)C(C)(C)C)NC(=O)C/C=C/C)N3)ccc2cn1, toluene, 2.98 mM, 105.0 °C, 0.58 h",38%
CC(C)[C@@H]1NC(=O)[C@H](C)[C@H](O[Si](C)(C)C(C)(C)C)CCC=Cc2cccc(c2)[C@@H](C)NC(=O)[C@@H]2CCCN(N2)C(=O)[C@H](C)NC1=O,"ring closure, yield of all isomers","[1]; from C=CCC[C@@H](O[Si](C)(C)C(C)(C)C)[C@@H](C)C(=O)N[C@H](C(=O)N[C@@H](C)C(=O)N1CCC[C@@H](C(=O)N[C@H](C)c2cccc(C=C)c2)N1)C(C)C, 1,2-dichloroethane, 2.8 mM, 80.0 °C, 1.0 h",43%
CC(C)[C@@H]1NC(=O)CC=Cc2cc3cc(ccc3cn2)[C@@H](C(F)(F)F)NC(=O)[C@@H]2CCCN(N2)C(=O)[C@H](C)NC1=O,"ring closure, yield of all isomers","[1]; from C=CCC(=O)N[C@H](C(=O)N[C@@H](C)C(=O)N1CCC[C@@H](C(=O)N[C@@H](c2ccc3cnc(C=C)cc3c2)C(F)(F)F)N1)C(C)C, toluene, 3.04 mM, 120.0 °C, 2.83 h",3%
CC(C)[C@@H]1NC(=O)CCC(C)(C)CC=Cc2cccc(c2)[C@@H](C)NC(=O)[C@@H]2CCCN(N2)C(=O)[C@H](C)NC1=O,"ring closure, yield of all isomers","[1]; from C=CCC(C)(C)CCC(=O)N[C@H](C(=O)N[C@@H](C)C(=O)N1CCC[C@@H](C(=O)N[C@H](C)c2cccc(C=C)c2)N1)C(C)C, 1,2-dichloroethane, 3.38 mM, 80.0 °C, 1.0 h",8%
CC(C)[C@@H]1NC(=O)C(C)(C)/C=C/c2ccc3ccc(nc3c2)[C@@H](C(F)(F)F)NC(=O)[C@@H]2CCCN(N2)C(=O)[C@H](C)NC1=O [Example 13],Replicon 1a % inhibition at 1 μm,[2],87%
C[C@@H]1NC(=O)[C@H](CCn2ccnn2)NC(=O)C(C)(C)/C=C/c2cc3cc(ccc3cn2)[C@@H](C)OC(=O)[C@@H]2CCCN(N2)C1=O [Example 50],Replicon 1a % inhibition at 1 μm,[2],12%
CC(C)[C@@H]1NC(=O)C(C)(C)c2cccc(c2)-c2cc3cc(ccc3cn2)[C@@H](C)OC(=O)[C@@H]2CCCN(N2)C(=O)[C@H](C)NC1=O [Compound 67],inhibition at 1 µM,[2],97%
CO[C@@H]1/C=C/c2cc3cc(ccc3cn2)[C@@H](C)OC(=O)[C@@]2(C)CCCN(N2)C(=O)[C@H](C)NC(=O)[C@H](C(C)C)NC(=O)[C@@H]1C [Example 33],inhibition at 1 µM,[2],14%
CC(C)[C@@H]1NC(=O)[C@H](C)CC=Cc2cc3cc(ccc3cn2)[C@@H](C)OC(=O)[C@@H]2CCCN(N2)C(=O)[C@H](C)NC1=O,"ring closure, yield of all isomers","[1]; from C=CC[C@@H](C)C(=O)N[C@H](C(=O)N[C@@H](C)C(=O)N1CCC[C@@H](C(=O)O[C@H](C)c2ccc3cnc(C=C)cc3c2)N1)C(C)C, toluene, 3.0 mM, 120.0 °C, 3.0 h",22%
CO[C@@H]1C=Cc2cc3cc(ccc3cn2)[C@@H](C)OC(=O)C2(C)CCCN(N2)C(=O)[C@H](C)NC(=O)[C@H](C(C)C)NC(=O)[C@@H]1C (stereo partly shown),"ring closure, yield of all isomers","[1]; from C=Cc1cc2cc([C@@H](C)OC(=O)C3(C)CCCN(C(=O)[C@H](C)NC(=O)[C@@H](NC(=O)[C@H](C)[C@@H](/C=C/C)OC)C(C)C)N3)ccc2cn1, toluene, 3.06 mM, 111.0 °C, 3.5 h",21%
CC(C)[C@@H]1NC(=O)CCCCC=Cc2cc3cc(ccc3cn2)[C@@H](C)OC(=O)[C@@H]2CCCN(N2)C(=O)[C@H](C)NC1=O,"ring closure, yield of all isomers","[1]; from C=CCCCCC(=O)N[C@H](C(=O)N[C@@H](C)C(=O)N1CCC[C@@H](C(=O)O[C@H](C)c2ccc3cnc(C=C)cc3c2)N1)C(C)C, toluene, 2.16 mM, 111.0 °C, 0.5 h",31%

# Reference: patent publication US10246486B2, “Macrocyclic inhibitors of flaviviridae viruses” (Gilead Sciences, Inc., priority 2012, dated 2019)
